How the values were obtained:
Type in all cases: in vivo
[1] = test system: corn rootworm (Diabrotica virgifera virgifera); assay: Field trial, seed treatment, efficacy against corn rootworm (% control and root damage index); conditions: for Damage Index: scale 1-6, corn roots
Protocol: Trials were carried out in field to assess efficacy of flupyrimin against corn rootworm (Diabrotica virgifera virgifera). Seeds were treated with flupyrimin before sowing. Evaluation was done to check % control of said insects at different dosage. Soil Texture=clay loam, pH=6.89, OM %=3.29.
Further, the damage index (Scale 1-6) at different concentrations was evaluated.
Assessment of the amount of damage by larval feeding of D. virgifera on corn roots were made by digging out the root system taking a diameter of approximately 25 cm to a depth of 15 cm. The root systems were then washed so that all crown roots were fairly clean. Damage on the root systems was assessed on 10 plants per plot (40 plants per treatment) using a scale as the following: • 1.0=no feeding damage; • 1.5=visible feeding scars present (not illustrated, but similar to a rating of two); • 2.0=up to three roots pruned slightly; • 2.5=more than three roots pruned, but none chewed to within 4 cm of plant; • 3.0=one to three roots chewed to within 4 cm of plant; • 3.5=more than three roots chewed to within 4 cm of plant; • 4.0=one entire node or equivalent number of roots destroyed • 4.5=about 1.5 nodes destroyed • 5.0=two nodes destroyed • 5.5=about 2.5 nodes destroyed • 6.0=three or more nodes completely destroyed (not illustrated, but similar to a rating of five)

[2] = test system: seed corn maggot (Delia platura); assay: Field trial, seed treatment, pest severity of seed corn maggot
Protocol: Trials were carried out in field to assess efficacy of flupyrimin against seed corn maggot (Delia platura). Seeds were treated with flupyrimin before sowing. Evaluation was done to evaluate pest severity of said insects at different dosage. Soil Texture=fine sandy loam, pH=7, OM %=0.8.

[3] = test system: Corn leafhopper (Dalbulus maidis); assay: Field trial, % control of adult corn leafhopper per plant
Protocol: Trials were carried out in field to assess efficacy of flupyrimin against Corn leafhopper (Dalbulus maidis). Evaluation was done to check % control of adult insects per plant at different dosage at 3 days after emergence and 7 days after emergence.

[4] = test system: fall army worm (Spodoptera frugiperda); assay: Field trial in corn plantation, % control of fall army worm, flupyrimin alone
Protocol: Trials were carried out in the field to assess efficacy of flupyrimin against fall army worm (Spodoptera frugiperda) in corn plantation. Evaluation was done to check % control of said insects at different dosage for 3, 7, 10, 14 DAA for 1st application and 3, 7, 10, 14, 21, 28, 35, and 42 DAA for 2nd application. The rate of application was 500 lit/ha.

Compound: O=C(/N=c1\ccccn1Cc1ccc(Cl)nc1)C(F)(F)F [Flupyrimin, N-[(E)-1-(6-chloro-3-pyridinylmethyl)pyridin-2 (1H)-ylidene]-2,2,2-trifluoroacetamide]
- Damage Index ([1]; 100 g/100 kg of seeds): 2.3
- Damage Index ([1]; 200 g/100 kg of seeds): 1.8
- Damage Index ([1]; 300 g/100 kg of seeds): 1.1
- Damage Index ([1]; 400 g/100 kg of seeds): 1
- Damage Index ([1]; 500 g/100 kg of seeds): 1
- % Control ([1]; seed treatment 100 g/100 kg of seeds): 49.39%
- % Control ([1]; seed treatment 200 g/100 kg of seeds): 70.4%
- % Control ([1]; seed treatment 300 g/100 kg of seeds): 96.38%
- % Control ([1]; seed treatment 400 g/100 kg of seeds): 99.36%
- % Control ([1]; seed treatment 500 g/100 kg of seeds): 100%
- insect control against corn rootworm (in words) ([1]; summary of Table 1): good insect control
- reduction of root damage (in words) ([1]; summary of Table 2, different concentrations): efficacious in reducing the damage
- Pest severity ([2]; 100 g/100 kg of seeds, 14 DP): 0.2
- Pest severity ([2]; 100 g/100 kg of seeds, 28 DP): 4.3
- Pest severity ([2]; 100 g/100 kg of seeds, 35 DP): 4.8
- Pest severity ([2]; 100 g/100 kg of seeds, 42 DP): 5.9
- Pest severity ([2]; 200 g/100 kg of seeds, 14 DP): 0
- Pest severity ([2]; 200 g/100 kg of seeds, 28 DP): 0.7
- Pest severity ([2]; 200 g/100 kg of seeds, 35 DP): 0.9
- Pest severity ([2]; 200 g/100 kg of seeds, 42 DP): 1.8
- Pest severity ([2]; 300 g/100 kg of seeds, 14 DP): 0
- Pest severity ([2]; 300 g/100 kg of seeds, 28 DP): 0.3
- Pest severity ([2]; 300 g/100 kg of seeds, 35 DP): 0.5
- Pest severity ([2]; 300 g/100 kg of seeds, 42 DP): 0.9
- Pest severity ([2]; 400 g/100 kg of seeds, 14 DP): 0
- Pest severity ([2]; 400 g/100 kg of seeds, 28 DP): 0.3
- Pest severity ([2]; 400 g/100 kg of seeds, 35 DP): 0.5
- Pest severity ([2]; 400 g/100 kg of seeds, 42 DP): 1.1
- Pest severity ([2]; 500 g/100 kg of seeds, 14 DP): 0
- Pest severity ([2]; 500 g/100 kg of seeds, 28 DP): 0
- Pest severity ([2]; 500 g/100 kg of seeds, 35 DP): 0
- Pest severity ([2]; 500 g/100 kg of seeds, 42 DP): 0.3
- efficacy against seed corn maggot (in words) ([2]; summary of Table 3): effective
- % Control ([3]; 100 g ai/100 kg, rate 0.2 Kg-L/ha, 3 DAE): 65%
- % Control ([3]; 100 g ai/100 kg, rate 0.2 Kg-L/ha, 7 DAE): 50%
- % Control ([3]; 200 g ai/100 kg, rate 0.4 Kg-L/ha, 3 DAE): 50.91%
- % Control ([3]; 200 g ai/100 kg, rate 0.4 Kg-L/ha, 7 DAE): 45.83%
- % Control ([3]; 300 g ai/100 kg, rate 0.6 Kg-L/ha, 3 DAE): 86.93%
- % Control ([3]; 300 g ai/100 kg, rate 0.6 Kg-L/ha, 7 DAE): 47.02%
- % Control ([3]; 500 g ai/100 kg, rate 1.0 Kg-L/ha, 3 DAE): 80%
- % Control ([3]; 500 g ai/100 kg, rate 1.0 Kg-L/ha, 7 DAE): 63.69%
- control of corn leafhopper (in words) ([3]; summary of Table 4): good control
- % Control ([4]; post 1st application, 150 g a.i./ha, 3 DAA): 27.8%
- % Control ([4]; post 1st application, 150 g a.i./ha, 7 DAA): 29.1%
- % Control ([4]; post 1st application, 150 g a.i./ha, 10 DAA): 28.1%
- % Control ([4]; post 1st application, 150 g a.i./ha, 14 DAA): 24.4%
- % Control ([4]; post 1st application, 200 g a.i./ha, 3 DAA): 32.8%
- % Control ([4]; post 1st application, 200 g a.i./ha, 7 DAA): 34.1%
- % Control ([4]; post 1st application, 200 g a.i./ha, 10 DAA): 33.7%
- % Control ([4]; post 1st application, 200 g a.i./ha, 14 DAA): 29.5%
- % Control ([4]; post 1st application, 250 g a.i./ha, 3 DAA): 38.1%
- % Control ([4]; post 1st application, 250 g a.i./ha, 7 DAA): 40.1%
- % Control ([4]; post 1st application, 250 g a.i./ha, 10 DAA): 36.7%
- % Control ([4]; post 1st application, 250 g a.i./ha, 14 DAA): 32.9%
- % Control ([4]; post 2nd application, 150 g a.i./ha, 3 DAA): 28.3%
- % Control ([4]; post 2nd application, 150 g a.i./ha, 7 DAA): 30.4%
- % Control ([4]; post 2nd application, 150 g a.i./ha, 10 DAA): 31.8%
- % Control ([4]; post 2nd application, 150 g a.i./ha, 14 DAA): 32.6%
- % Control ([4]; post 2nd application, 150 g a.i./ha, 21 DAA): 29.9%
- % Control ([4]; post 2nd application, 150 g a.i./ha, 28 DAA): 28.9%
- % Control ([4]; post 2nd application, 150 g a.i./ha, 35 DAA): 27.3%
- % Control ([4]; post 2nd application, 150 g a.i./ha, 42 DAA): 27.1%
- % Control ([4]; post 2nd application, 200 g a.i./ha, 3 DAA): 35.6%
- % Control ([4]; post 2nd application, 200 g a.i./ha, 7 DAA): 35.3%
- % Control ([4]; post 2nd application, 200 g a.i./ha, 10 DAA): 36.3%
- % Control ([4]; post 2nd application, 200 g a.i./ha, 14 DAA): 35.3%
- % Control ([4]; post 2nd application, 200 g a.i./ha, 21 DAA): 34.5%
- % Control ([4]; post 2nd application, 200 g a.i./ha, 28 DAA): 34.5%
- % Control ([4]; post 2nd application, 200 g a.i./ha, 35 DAA): 33.7%
- % Control ([4]; post 2nd application, 200 g a.i./ha, 42 DAA): 33.3%
- % Control ([4]; post 2nd application, 250 g a.i./ha, 3 DAA): 41.4%
- % Control ([4]; post 2nd application, 250 g a.i./ha, 7 DAA): 42.7%
- % Control ([4]; post 2nd application, 250 g a.i./ha, 10 DAA): 43.7%
- % Control ([4]; post 2nd application, 250 g a.i./ha, 14 DAA): 44.4%
- % Control ([4]; post 2nd application, 250 g a.i./ha, 21 DAA): 41.4%
- % Control ([4]; post 2nd application, 250 g a.i./ha, 28 DAA): 38.8%
- % Control ([4]; post 2nd application, 250 g a.i./ha, 35 DAA): 38.1%
- % Control ([4]; post 2nd application, 250 g a.i./ha, 42 DAA): 37.9%
